The subject of test [1] is Amaranthus hypochondriacus. In words: Phytotoxicity against Amaranthus hypochondriacus seedlings assessed as inhibition of radical growth at 28 degC by petri dish assay. Format: functional, organism-based.
Test [2] is described as follows: Inhibition of bovine brain calmodulin-dependent cyclic nucleotide phosphodiesterase after 30 min. Also noted: species or system Bos taurus.
Another test deals with Calmodulin (Bos taurus) (UniProt P62157). The test is described as follows: Binding affinity to bovine brain calmodulin assessed as decrease in electrophoretic mobility at 0.033 ug/ml for 1.5 hrs by SDS-PAGE in presence of Ca2+ ions.

Active and inactive are the calls of the source. The calls are words filed in the database; no cut-off is given here.

As to `O=C(O)COc1ccc(Cl)cc1Cl` [2,4-DICHLOROPHENOXYACETIC ACID], the IC50 (usually the concentration that inhibits the measured activity by half) in test [1] came out at 200 µM. Compound `CN(C)CCCN1c2ccccc2Sc2ccc(Cl)cc21` [CHLORPROMAZINE] returned a 50% inhibitory concentration (IC50) in test [2] of 9.8 µM. As for `CCC[C@@H]1C[C@@H](O)/C=C/CCCC(=O)O1` [HERBARUMIN III], the concentration for half-maximal inhibition (IC50) in test [1] came to 20 µM. Besides, the result on Calmodulin (Bos taurus) was Active. For the compound `CCC[C@H]1OC(=O)[C@H](O)CC/C=C/[C@H](O)[C@@H]1O` [HERBARUMIN II], the outcome on Calmodulin (Bos taurus) was Active. This compound also showed a concentration for half-maximal inhibition (IC50) in test [2] of 6.6 µM. For `CCC[C@H]1OC(=O)CCC/C=C/[C@H](O)[C@@H]1O` [HERBARUMIN I] the same measures were “Active” and 14.2 µM.
